This passage reports IC50 and IC50 ratio results from ChEMBL document CHEMBL1125752, “Relationship between tissue selectivity and lipophilicity for inhibitors of HMG-CoA reductase” (J Med Chem, 1991).

Experiment [1] addresses T1, 3-hydroxy-3-methylglutaryl-coenzyme A reductase (Rattus norvegicus, UniProt P51639).
T1 sequence (P51639 whole entry): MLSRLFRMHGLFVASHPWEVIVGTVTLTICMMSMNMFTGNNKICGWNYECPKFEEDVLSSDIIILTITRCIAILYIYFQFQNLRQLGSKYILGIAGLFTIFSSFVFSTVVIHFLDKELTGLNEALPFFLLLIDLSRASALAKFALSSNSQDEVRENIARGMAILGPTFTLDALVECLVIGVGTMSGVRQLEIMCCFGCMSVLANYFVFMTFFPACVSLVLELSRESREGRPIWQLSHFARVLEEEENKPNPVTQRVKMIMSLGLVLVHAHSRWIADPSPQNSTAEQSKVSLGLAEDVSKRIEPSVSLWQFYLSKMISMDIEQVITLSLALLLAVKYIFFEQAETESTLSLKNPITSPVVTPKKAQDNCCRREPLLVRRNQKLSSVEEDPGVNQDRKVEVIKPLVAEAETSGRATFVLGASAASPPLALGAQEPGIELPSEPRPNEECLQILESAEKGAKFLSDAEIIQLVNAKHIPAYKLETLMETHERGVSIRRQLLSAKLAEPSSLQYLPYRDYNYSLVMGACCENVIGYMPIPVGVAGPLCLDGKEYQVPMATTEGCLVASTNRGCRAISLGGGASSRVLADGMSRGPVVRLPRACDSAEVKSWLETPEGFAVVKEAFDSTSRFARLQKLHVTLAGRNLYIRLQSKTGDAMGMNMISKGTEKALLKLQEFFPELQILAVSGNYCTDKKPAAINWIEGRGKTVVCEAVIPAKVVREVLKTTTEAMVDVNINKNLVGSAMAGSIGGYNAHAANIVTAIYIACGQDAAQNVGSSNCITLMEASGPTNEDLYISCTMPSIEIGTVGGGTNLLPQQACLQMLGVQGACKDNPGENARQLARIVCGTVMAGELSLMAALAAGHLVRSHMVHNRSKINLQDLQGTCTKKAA
Nature of the experiment: Ability to inhibit microsomal preparation of HMG-CoA reductase in rat liver.

For experiment [2], the species on record is Rattus norvegicus. Nature of the experiment: Incorporation of [14C]- acetate into sterols measured in rat liver. It is filed as functional, organism-based.
The species named for experiment [3] is Rattus norvegicus. As to the kind of experiment: Incorporation of [14C]- acetate into sterols measured in rat spleen. Format: functional, organism-based.
The species entered for experiment [4] is Rattus norvegicus. Nature of the experiment: Incorporation of [14C]- acetate into sterols measured in rat testis. Format: functional, organism-based.
The nature of experiment [5]: IC50 ratio evaluated as the IC50 values of spleen to that of liver. It is filed as functional. On the set-up: reference not given here.
A short description of experiment [6]: IC50 ratio evaluated as the IC50 values of testis to that of liver. It is filed as functional. More on the design: reference not given here.
The species entered for experiment [7] is Rattus norvegicus. Nature of the experiment: Compound was tested for its effect on the incorporation of [14C]- acetate into sterols measured rat liver. Format: functional, organism-based.
The species entered for experiment [8] is Rattus norvegicus. Nature of the experiment: Compound was tested for its effect on the incorporation of [14C]- acetate into sterols measured rat spleen. Format: functional, organism-based.
Experiment [9] is filed under the species Rattus norvegicus. Nature of the experiment: Compound was tested for its effect on the incorporation of [14C]- acetate into sterols measured rat testis. It is filed as functional, organism-based.

Take `Cc1ccc(-c2ccc(C(C)C)c(OC[C@@H](O)C[C@@H](O)CC(=O)[O-])c2-c2ccc(F)cc2)cc1.[Na+]`: the IC50 came to 100 nM in experiment [1], 6040 nM in the experiment filed under Rattus norvegicus [2], 375 nM in the experiment filed under Rattus norvegicus [3] and 511 nM in the experiment listed under Rattus norvegicus [4]. Also, the IC50 ratio is on record as 0.06 in [5] and 0.08 in [6].

With `CC(C)c1nn(-c2ccccn2)c(-c2ccc(F)cc2)c1/C=C/[C@@H](O)C[C@@H](O)CC(=O)[O-].[Na+]`, the IC50 in experiment [1] is 10 nM; in the experiment listed under Rattus norvegicus [2] it was 17 nM; in the experiment listed under Rattus norvegicus [3] it was 29 nM; in the experiment filed under Rattus norvegicus [4], 82 nM. In addition, the figures for the IC50 ratio in [5] and in experiment [6] were 1.7 and 4.8, respectively.

Consider `CC(C)n1c(/C=C/C(O)CC(O)CC(=O)O)c(-c2ccc(F)cc2)c2ccccc21` (stereo unspecified) [FLUVASTATIN SODIUM], for which the figures for the IC50 in the experiment listed under Rattus norvegicus [2], in the experiment filed under Rattus norvegicus [3] and in the experiment filed under Rattus norvegicus [4] were 142 nM, 292 nM and 4 nM, respectively.

As for `Cc1cc(-c2ccc(F)cc2)c(/C=C/[C@@H](O)C[C@@H](O)CC(=O)[O-])c(C(C)C)[n+]1[O-].[Na+]`, the IC50 in [1] was found to be 9.4 nM; in the experiment filed under Rattus norvegicus [7], 18 nM; in the experiment listed under Rattus norvegicus [8], 266 nM; in the experiment filed under Rattus norvegicus [9], 718 nM. The IC50 ratio in experiment [5] is 14.8; in [6], 39.9.

In the case of `CC(C)c1nn(-c2ccccc2)c(-c2ccc(F)cc2)c1/C=C/[C@@H](O)C[C@@H](O)CC(=O)[O-].[Na+]`, the IC50 in [1] is 7.2 nM; in the experiment filed under Rattus norvegicus [2], 34 nM; in the experiment filed under Rattus norvegicus [3] it was 12 nM; in the experiment filed under Rattus norvegicus [4] it was 8 nM. Besides, the IC50 ratio in experiment [5] is given as 0.35; in [6] it was 0.24.

With `Cn1nnnc1C(/C=C/[C@@H](O)C[C@@H](O)CC(=O)[O-])=C(c1ccc(F)cc1)c1ccc(F)cc1.[Na+]`, the IC50 came to 13 nM in experiment [1], 108 nM in the experiment filed under Rattus norvegicus [2], 1580 nM in the experiment listed under Rattus norvegicus [3] and 638 nM in the experiment filed under Rattus norvegicus [4]. Further, the IC50 ratio in experiment [5] came out at 14.6; in experiment [6], 5.9.

In the case of `CC(C)c1nc(-c2ccccc2)cc(-c2ccc(F)cc2)c1/C=C/[C@@H](O)C[C@@H](O)CC(=O)[O-].[Na+]`, the IC50 worked out at 2 nM in experiment [1], 8070 nM in the experiment listed under Rattus norvegicus [2], 77 nM in the experiment filed under Rattus norvegicus [3] and 16 nM in the experiment filed under Rattus norvegicus [4]. The IC50 ratio in experiment [5] was determined as 0.01; in [6], 0.002.

Turning to `Cc1cc(-c2ccc(F)cc2)c(/C=C/[C@@H](O)C[C@@H](O)CC(=O)[O-])c(C(C)C)n1.[Na+]`, the IC50 came out at 7.7 nM in experiment [1], 71 nM in the experiment listed under Rattus norvegicus [2], 17 nM in the experiment filed under Rattus norvegicus [4] and 9 nM in the experiment filed under Rattus norvegicus [8]. The figures for the IC50 ratio in [5] and in [6] were 0.13 and 0.24, respectively.

Regarding `CC[C@H](C)C(=O)O[C@H]1C[C@H](O)C=C2C=C[C@H](C)[C@H](CC[C@@H](O)C[C@@H](O)CC(=O)[O-])[C@H]21.[Na+]` [PRAVASTATIN SODIUM], the IC50 came out at 40 nM in experiment [1], 141 nM in the experiment filed under Rattus norvegicus [2], 228 nM in the experiment filed under Rattus norvegicus [3] and 329 nM in the experiment filed under Rattus norvegicus [4]. The IC50 ratio in [5] is given as 1.6; in [6] it was 2.3.

With `CC[C@H](C)C(=O)O[C@H]1C[C@H](C)C=C2C=C[C@H](C)[C@H](CC[C@@H]3C[C@@H](O)CC(=O)O3)[C@H]21`, the IC50 amounted to 13 nM in experiment [1], 28 nM in the experiment filed under Rattus norvegicus [2], 5 nM in the experiment filed under Rattus norvegicus [3] and 4 nM in the experiment listed under Rattus norvegicus [4]. The IC50 ratio came to 0.17 in [5] and 0.14 in experiment [6].

Consider `CC(C)c1c(Br)c(Br)c(-c2ccc(F)cc2)n1CC[C@@H](O)C[C@@H](O)CC(=O)[O-].[Na+]`, for which the IC50 amounted to 26 nM in experiment [1], 2730 nM in the experiment filed under Rattus norvegicus [2], 140 nM in the experiment filed under Rattus norvegicus [3] and 24 nM in the experiment listed under Rattus norvegicus [4]. Further, the IC50 ratio in experiment [5] came to 0.05; in experiment [6], 0.009.

Take `CC(C)c1nn(-c2cnccn2)c(-c2ccc(F)cc2)c1/C=C/[C@@H](O)C[C@@H](O)CC(=O)[O-].[Na+]`: the IC50 was 6.6 nM in experiment [1], 10 nM in the experiment filed under Rattus norvegicus [2], 20 nM in the experiment filed under Rattus norvegicus [3] and 64 nM in the experiment listed under Rattus norvegicus [4]. In addition, the figures for the IC50 ratio in experiment [5] and in [6] were 2 and 6.4, respectively.

For the molecule `Cc1cc(C)c(OC[C@@H](O)C[C@@H](O)CC(=O)[O-])c(C2CCCCCC2)c1.[Na+]`, the IC50 was determined as 141 nM in experiment [1], 5170 nM in the experiment listed under Rattus norvegicus [2], 108 nM in the experiment filed under Rattus norvegicus [3] and 63 nM in the experiment listed under Rattus norvegicus [4]. Moreover, the IC50 ratio was 0.02 in experiment [5] and 0.01 in [6].

Turning to `CC(C)c1nc2ccc(Cl)cc2c(-c2ccc(F)cc2)c1/C=C/[C@@H](O)C[C@@H](O)CC(=O)[O-].[Na+]`, the IC50 in [1] came to 480 nM; in the experiment filed under Rattus norvegicus [2], 6280 nM; in the experiment filed under Rattus norvegicus [3] it was 92 nM; in the experiment listed under Rattus norvegicus [4] it was 184 nM. Besides, the IC50 ratio in [5] stood at 0.02; in experiment [6], 0.03.
